# Data published in patent US20210403460A1, “INHIBITORS OF MUTANT ISOCITRATE DEHYDROGENASES AND COMPOSITIONS AND METHODS THEREOF” (IsoCure Biosciences Inc., priority 2016, published 2021).
# How the values were obtained:
# Format in all cases: biochemical
# [1] = biological target: IDH1 (R132H) (Homo sapiens, UniProt O75874, R132H); experiment: IDH1 R132H enzyme assay, NADPH depletion by diaphorase/resazurin coupled detection; settings: 60 min preincubation with enzyme/NADPH, 45 min reaction, room temperature
# Protocol: (§1) Compounds were tested against 3 enzymes WT IDH1, IDH1 R132C, IDH1 R132H
# (§2) Assay Format: The production or depletion of NADPH by IDH enzymes was measured by diaphorase/resazurin coupled detection.
# (§3) Reaction Procedure Mutant:
# (§4) 8. Deliver enzyme/NADPH in the reaction buffer into wells of reaction plate except No Enzyme control wells. Add buffer+NADPH into No Enzyme wells. 9. Deliver compound in 100% DMSO into the enzyme mixture. Spin down and preincubate for 60 min at room temperature. 10. Deliver Substrate mixture to initiate the reaction. Spin down plate and gently shake 45 minutes at room temperature.
# (§5) Detection Step (the Same as Wt):
# (§6) 11. Make a 3× mix of Detection mixture in the reaction buffer, and add detection mixture into the reaction. Spin down. 12. Incubate at room temperature for 10 minutes.
# (§7) 13. Measure in Envision. (Ex/Em=535/590 nm)
# (§8) 14. […] (the average value of the No Enzyme wells). Average the DMSO control wells and set value as 100%. Take ratio of measured data/average DMSO control value times 100% to arrive at % activity.
# [2] = biological target: WT IDH1 (Homo sapiens, UniProt O75874); experiment: Wild-type IDH1 enzyme assay, NADPH production by diaphorase/resazurin coupled detection; settings: 60 min preincubation with enzyme/NADP, 45 min reaction, room temperature
# Protocol: as §1, §2
# Reaction Procedure Wild-Type:
# as §4, with “1.” for “8.”, “enzyme/NADP” for “enzyme/NADPH”, “buffer+NADP” for “buffer+NADPH”, “2.” for “9.”, “3.” for “10.”
# 4. Make a 3× mix of Detection mixture in the reaction buffer, and add detection mixture into the reaction. Spin down. 5. Incubate at room temperature for 10 minutes.
# 6. Measure in Envision. (Ex/Em=535/590 nm)
# 7. Subtract background (the average value of the No Enzyme control wells) from raw data. Average the DMSO control wells and set value as 100%. Take ratio of measured data/average DMSO control value times 100% to arrive at % activity.
# [3] = biological target: IDH1 (R132C) (Homo sapiens, UniProt O75874, R132C); experiment: IDH1 R132C enzyme assay, NADPH depletion by diaphorase/resazurin coupled detection; settings: 60 min preincubation with enzyme/NADPH, 45 min reaction, room temperature
# Protocol: as §1, §2, §3, §4, §5, §6, §7, §8
# Sequence of IDH1 (R132H) (O75874 whole entry R132H): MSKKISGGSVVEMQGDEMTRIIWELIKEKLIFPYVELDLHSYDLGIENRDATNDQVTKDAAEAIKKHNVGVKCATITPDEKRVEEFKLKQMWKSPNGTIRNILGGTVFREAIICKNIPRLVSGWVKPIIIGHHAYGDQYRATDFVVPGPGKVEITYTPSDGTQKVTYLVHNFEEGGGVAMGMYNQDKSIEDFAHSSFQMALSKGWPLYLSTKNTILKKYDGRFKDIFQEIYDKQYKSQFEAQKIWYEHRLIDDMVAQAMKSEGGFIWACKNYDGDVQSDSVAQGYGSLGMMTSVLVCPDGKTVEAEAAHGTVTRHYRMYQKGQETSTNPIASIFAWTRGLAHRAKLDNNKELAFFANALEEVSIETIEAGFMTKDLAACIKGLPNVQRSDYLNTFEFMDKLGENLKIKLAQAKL
# Sequence of IDH1 (R132C) (O75874 whole entry R132C): as the sequence (O75874 whole entry R132H) above, with H132C counted along it
# Sequence of WT IDH1 (O75874 whole entry): as the sequence (O75874 whole entry R132H) above, with H132R counted along it
SMILES,IC50 [1] [nM],IC50 [2] [µM],IC50 [3] [nM]
"C=CC(=O)N1CCN(Cc2ccc([C@H](C)Nc3nccc(N4C(=O)OC[C@@H]4C(C)C)n3)cc2)CC1 [IS01, (S)-3-(2-(((S)-1-(4-((4-acryloylpiperazin-1-yl)methyl)phenyl)ethyl)amino)pyrimidin-4-yl)-4-isopropyloxazolidin-2-one]",1.32,9.46,1.61
"C=CC(=O)Nc1ccc(Nc2ccc([C@H](C)Nc3nccc(N4C(=O)OC[C@@H]4C(C)C)n3)cc2)nc1 [IS03, N-(6-((4-((S)-1-((4-((S)-4-isopropyl-2-oxooxazolidin-3-yl)pyrimidin-2-yl)amino)ethyl)phenyl)amino)pyridin-3-yl)acrylamide]",3.61,8.52,3.35
"C=CC(=O)Nc1ccc(Nc2ccc([C@H](C)Nc3nccc(N4C(=O)OC[C@@H]4C(C)C)n3)cc2)cc1 [IS04, N-(4-((4-((S)-1-((4-((S)-4-isopropyl-2-oxooxazolidin-3-yl)pyrimidin-2-yl)amino)ethyl)phenyl)amino)phenyl)acrylamide]",10.5,> 10,7.55
"C=CC(=O)Nc1cccc(Nc2ccc([C@H](C)Nc3nccc(N4C(=O)OC[C@@H]4C(C)C)n3)cc2)c1 [IS05, N-(3-((4-((S)-1-((4-((S)-4-isopropyl-2-oxooxazolidin-3-yl)pyrimidin-2-yl)amino)ethyl)phenyl)amino)phenyl)acrylamide]",–,> 1.48,4.67
"C=CC(=O)N1CCC(Oc2ccc(C(C)Nc3nccc(N4C(=O)OC[C@@H]4C(C)C)n3)cn2)CC1 (stereo partly drawn) [IS07, (4S)-3-(2-((1-(6-((1-acryloylpiperidin-4-yl)oxy)pyridin-3-yl)ethyl)amino)pyrimidin-4-yl)-4-isopropyloxazolidin-2-one]",340,–,–
"C=CC(=O)Nc1ccc(N(C)c2cnc(C(C)Nc3nccc(N4C(=O)OC[C@@H]4C(C)C)n3)nc2)cc1 (stereo partly drawn) [IS012, N-(4-((2-(1-((4-((S)-4-isopropyl-2-oxooxazolidin-3-yl)pyrimidin-2-yl)amino)ethyl)pyrimidin-5-yl)(methyl)amino)phenyl)acrylamide]",161,–,198
"C=CC(=O)Nc1cccc(-c2cnc(C(C)Nc3nccc(N4C(=O)OC[C@@H]4C(C)C)n3)nc2)c1 (stereo partly drawn) [IS013, N-(3-(2-(1-((4-((S)-4-isopropyl-2-oxooxazolidin-3-yl)pyrimidin-2-yl)amino)ethyl)pyrimidin-5-yl)phenyl)acrylamide]",107,–,285
"C=CC(=O)N1CCN(Cc2ccc([C@H](C)Nc3nc(N4C(=O)OC[C@@H]4C(C)C)c4sccc4n3)cc2)CC1 [IS014, (S)-3-(2-(((S)-1-(4-((4-acryloylpiperazin-1-yl)methyl)phenyl)ethyl)amino)thieno [3,2-d]pyrimidin-4-yl)-4-isopropyloxazolidin-2-one]",–,–,2.61
